Data as given in patent US4325954A, “Pyrrolopyrimidinones and pyrroloimidazolones and their compositions and therapeutic methods” (Laboratoires Jacques Logeais, priority 1979, dated 1982).
Where two headings read alike, the source gives them in different places.

Assays:
[1] = Acute toxicity in mice (oral or intraperitoneal single dose); settings: mouse, in vivo, observed at least one week
Protocol: Each compound was administered orally or intraperitoneally as a single dose.

[2] = system: palpebral ptosis induced by a reserpine injection; assay: Antidepressant activity: antagonism of palpebral ptosis induced by reserpine injection; format: in vivo; settings: Mus musculus; mice, oral, one hour prior to reserpine 2 mg/kg ip; recorded hourly for 3 hours (Rubin's scale); read-out: ptosis reserpine ED50 (dosage which inhibits palpebral ptosis by 50%)
Protocol: The antidepressant activity of each compound was evaluated in mice from its ability to antagonize palpebral ptosis induced by a reserpine injection. The different materials were administered orally, as a preventive treatment, one hour prior to intraperitoneal injection of reserpine (2 mg/kg). The intensity of the palpebral ptosis was then recorded at hourly intervals, for a period of time of 3 hours, according to a semi-quantitative scale (Rubin's scale). The test materials were administered at several dosage levels and, for most of them, the 50% efficient dosage (ED50) which inhibits palpebral ptosis by a factor of 50% could be evaluated.

[3] = system: peripheral and central cholinergic effects of oxotremorine; assay: Atropine activity: effect on peripheral and central cholinergic effects of oxotremorine; format: in vivo; settings: 100 mg/kg oral, 60 minutes prior to subcutaneous oxotremorine 2 mg/kg
Protocol: In view of the detrimental atropine-like side-effect of the conventional antidepressants, this potential property was systematically investigated in the compounds of the formula (I).
The different materials were administered orally 60 minutes prior to subcutaneous oxotremorine injection at a dosage of 2 mg/kg.
15 minutes, and then 30 and 45 minutes after injection of the cholinergic agent, the various symptoms reflecting a parasympathetic stimulation were evaluated according to a semi-quantitative arbitrary scale (from 0 to 4).
peripheral cholinergic stimulation symptoms: tearfulness, salivation;
central cholinergic stimulation: trembling, Straub's phenomenon.

cardiovascular system = assay: Effects on the cardiovascular system in dogs; format: in vivo; settings: intravenous, 0.1 mg/kg to 10 mg/kg
Protocol: The compounds of the formula (I) were administered intravenously in dogs, at dosages from 0.1 mg/kg to 10 mg/kg. The changes of blood pressure, of the femoral arterial rate, of vascular resistance subsequent to said injections were recorded.

[4] = ip, intraperitoneal, read-out: LD50 ip

## O=C1CCCN=C2CC(c3ccccc3)CN12 (stereo not shown) [Example 18]
[1]; [4]
  LD50: > 200 mg/kg
[1]; oral, read-out: LD50 po
  LD50: > 200 mg/kg
[2]
  ED50: < 33 mg/kg

## CC(C)C1N=C2CC(c3ccccc3)CN2C1=O (racemic) [Example 2]
[1]; [4]
  LD50: > 200 mg/kg
[1]; oral, read-out: LD50 po
  LD50: > 200 mg/kg
[2]
  ED50: > 30 mg/kg

## O=C1C(c2ccccc2)N=C2CC(c3ccccc3)CN12 (racemic) [Example 3]
[1]; [4]
  LD50: > 200 mg/kg
[1]; oral, read-out: LD50 po
  LD50: > 200 mg/kg
[2]
  ED50: ~30 mg/kg

## O=C1CCN=C2CC(c3ccccc3)CN12 (stereo not shown) [Example 14]
[1]; [4]
  LD50: > 200 mg/kg
[1]; oral, read-out: LD50 po
  LD50: > 200 mg/kg
[2]
  ED50: 5 mg/kg

## CC1N=C2CC(c3ccccc3)CN2C1=O (racemic) [Example 1]
[1]; [4]
  LD50: > 200 mg/kg
[1]; oral, read-out: LD50 po
  LD50: > 200 mg/kg
[2]
  ED50: ~33 mg/kg

## CC(C)C1N=C2CCC(c3ccccc3)CN2C1=O (racemic) [Example 10]
[1]; [4]
  LD50: > 200 mg/kg
[1]; oral, read-out: LD50 po
  LD50: > 200 mg/kg
[3]
  inhibitor activity on cholinergic effects of oxotremorine: slight inhibitor activity
[2]
  ED50: ~100 mg/kg

## CCOC(=O)C1N=C2CC(c3ccccc3)CN2C1=O (stereo not shown) [Example 5]
[1]; [4]
  LD50: > 200 mg/kg
[1]; oral, read-out: LD50 po
  LD50: > 200 mg/kg
Cardiovascular system
  vasoconstrictive action: slightly vasoconstrictive
[2]
  ED50: ~7 mg/kg

## CCOC(=O)CCC1N=C2CCC(c3ccccc3)CN2C1=O (stereo not shown) [Example 13]
[1]; [4]
  LD50: > 200 mg/kg
[1]; oral, read-out: LD50 po
  LD50: > 200 mg/kg
[2]
  ED50: ~30 mg/kg

## CCOC(=O)C1N=C2CCC(c3ccccc3)CN2C1=O (stereo not shown) [Example 12]
[1]; [4]
  LD50: > 200 mg/kg
[1]; oral, read-out: LD50 po
  LD50: > 200 mg/kg
[2]
  ED50: ~30 mg/kg

## O=C1CCN=C2CC(c3cc4ccccc4o3)CN12 (stereo not shown) [Example 15]
[1]; [4]
  LD50: > 200 mg/kg
[1]; oral, read-out: LD50 po
  LD50: > 200 mg/kg
[2]
  ED50: ~33 mg/kg

## CCOC(=O)CC1N=C2CC(c3ccccc3)CN2C1=O (stereo not shown) [Example 6]
[1]; [4]
  LD50: > 200 mg/kg
[1]; oral, read-out: LD50 po
  LD50: > 200 mg/kg
Cardiovascular system
  action on the blood pressure: slight hypotensive action
[2]
  ED50: ~100 mg/kg

## O=C1C(Cc2ccccc2)N=C2CC(c3ccccc3)CN12 (stereo not shown) [Example 4]
[1]; [4]
  LD50: < 200 mg/kg
[1]; oral, read-out: LD50 po
  LD50: > 200 mg/kg
[2]
  ED50: < 30 mg/kg

## O=C1CCN=C2CCC(c3ccccc3)N12 (stereo not shown) [Example 17]
[1]; [4]
  LD50: > 200 mg/kg
[1]; oral, read-out: LD50 po
  LD50: > 200 mg/kg
[2]
  ED50: < 100 mg/kg

## CCOC(=O)CCC1N=C2CC(c3ccccc3)CN2C1=O (stereo not shown) [Example 7]
[1]; [4]
  LD50: > 200 mg/kg
[1]; oral, read-out: LD50 po
  LD50: > 200 mg/kg
[2]
  ED50: ~30 mg/kg

## CSCCC1N=C2CC(c3ccccc3)CN2C1=O (stereo not shown) [Example 8]
[1]; [4]
  LD50: > 200 mg/kg
[1]; oral, read-out: LD50 po
  LD50: > 200 mg/kg
Cardiovascular system
  action on the blood pressure: slight hypotensive action
[2]
  ED50: ~30 mg/kg
